The molecules below were run against GLP-1R (Homo sapiens, UniProt P43220) (assay: GLP-1R Activation - cAMP Assay). Conditions: cAMP increase in CHO cells stably expressing GLP-1R; each compound run on one of the two cAMP assays (Assay 1 or Assay 2, not specified).
Assay type: cell-based
Procedure, shortened: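 CHO cells stably expressing GLP-1R, plated at 1,000 cells/well overnight, then equilibrated 1 h in HBSS with 20 mM Hepes and 0.1% BSA. Agonist added as 10-point dose response for 30 min at 37 °C. cAMP measured by HTRF (Cisbio Gs Dynamic kit); EC50 from sigmoidal fit.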

Chain of GLP-1R (P43220 24-463): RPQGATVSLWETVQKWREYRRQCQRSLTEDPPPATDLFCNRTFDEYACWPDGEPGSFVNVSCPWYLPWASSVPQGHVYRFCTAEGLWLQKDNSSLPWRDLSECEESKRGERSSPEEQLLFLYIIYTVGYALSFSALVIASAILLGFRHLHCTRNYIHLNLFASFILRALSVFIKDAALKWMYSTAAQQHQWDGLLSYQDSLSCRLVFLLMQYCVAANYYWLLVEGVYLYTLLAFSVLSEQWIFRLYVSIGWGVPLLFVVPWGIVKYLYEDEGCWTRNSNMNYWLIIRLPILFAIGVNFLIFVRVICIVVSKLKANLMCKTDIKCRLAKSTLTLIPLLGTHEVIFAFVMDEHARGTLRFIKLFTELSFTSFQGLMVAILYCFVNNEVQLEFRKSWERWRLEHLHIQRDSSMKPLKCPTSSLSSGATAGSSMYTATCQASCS

Row | Compound | EC50 [nM]
1 | CC1(C)COC[C@H]1n1c(Cc2cc(F)c(-c3ncc(F)c(OCc4ccc(Cl)cc4F)n3)cc2F)nc2ccc(C(=O)O)cc21 [Example 410, (S)-2-(4-(4-((4-chloro-2-fluorobenzyl)oxy)-5-fluoropyrimidin-2-yl)-2,5-difluorobenzyl)-1-(4,4-dimethyltetrahydrofuran-3-yl)-1H-benzo[d]imidazole-6-carboxylic acid] | 0.349
2 | CC1(C)COC[C@H]1n1c(Cc2cc(F)c(-c3cccc(OCc4cnc(-n5ccnn5)cc4C(F)(F)F)n3)cc2F)nc2ccc(C(=O)O)cc21 [Example 414, (S)-2-(4-(6-((6-(1H-1,2,3-triazol-1-yl)-4-(trifluoromethyl)pyridin-3-yl)methoxy)pyridin-2-yl)-2,5-difluorobenzyl)-1-(4,4-dimethyltetrahydrofuran-3-yl)-1H-benzo[d]imidazole-6-carboxylic acid] | 0.261
3 | CC1(C)COC[C@H]1n1c(Cc2c(F)cc(-c3ccc(Cl)c(OCc4ccc(C#N)cc4F)n3)c(F)c2F)nc2ccc(C(=O)O)cc21 [Example 416, (S)-2-(4-(5-chloro-6-((4-cyano-2-fluorobenzyl)oxy)pyridin-2-yl)-2,3,6-trifluorobenzyl)-1-(4,4-dimethyltetrahydrofuran-3-yl)-1H-benzo[d]imidazole-6-carboxylic acid] | 0.235
4 | CC1(C)COC[C@H]1n1c(Cc2cc(F)c(-c3cccc(OCc4ccc(Cl)cc4F)n3)cc2F)nc2cc(F)c(C(=O)O)cc21 [Example 417, (S)-2-(4-(6-((4-chloro-2-fluorobenzyl)oxy)pyridin-2-yl)-2,5-difluorobenzyl)-1-(4,4-dimethyltetrahydrofuran-3-yl)-5-fluoro-1H-benzo[d]imidazole-6-carboxylic acid] | 0.19
5 | CC1(C)COC[C@H]1n1c(Cc2cc(F)c(-c3cccc(OCc4ccc(C#N)cc4)n3)cc2F)nc2cc(F)c(C(=O)O)cc21 [Example 418, (S)-2-(4-(6-((4-cyanobenzyl)oxy)pyridin-2-yl)-2,5-difluorobenzyl)-1-(4,4-dimethyltetrahydrofuran-3-yl)-5-fluoro-1H-benzo[d]imidazole-6-carboxylic acid] | 0.199
6 | CC1(C)COC[C@H]1n1c(Cc2cc(F)c(-c3cccc(OCc4ccc(C#N)cc4F)n3)cc2F)nc2cnc(C(=O)O)cc21 [Example 422, (S)-2-(4-(6-((4-cyano-2-fluorobenzyl)oxy)pyridin-2-yl)-2,5-difluorobenzyl)-1-(4,4-dimethyltetrahydrofuran-3-yl)-1H-imidazo[4,5-c]pyridine-6-carboxylic acid] | 3.16
7 | Cn1ccc(COc2cccc(-c3cc(F)c(Cc4nc5ccc(C(=O)O)cc5n4[C@@H]4COCC4(C)C)cc3F)n2)cc1=O [Example 427, (S)-2-(2,5-difluoro-4-(6-((1-methyl-2-oxo-1,2-dihydropyridin-4-yl)methoxy)pyridin-2-yl)benzyl)-1-(4,4-dimethyltetrahydrofuran-3-yl)-1H-benzo[d]imidazole-6-carboxylic acid] | 0.501
8 | CC1(C)COC[C@H]1n1c(Cc2cc(F)c(-c3ccc(F)c(OCc4ccc(C#N)cc4F)n3)cc2F)nc2ccc(C(=O)O)nc21 [Example 428, (S)-2-(4-(6-((4-cyano-2-fluorobenzyl)oxy)-5-fluoropyridin-2-yl)-2,5-difluorobenzyl)-3-(4,4-dimethyltetrahydrofuran-3-yl)-3H-imidazo[4,5-b]pyridine-5-carboxylic acid] | 0.105
9 | CC1(C)COC[C@H]1n1c(Cc2cc(F)c(-c3cccc(OCc4ccncc4F)n3)cc2F)nc2ccc(C(=O)O)cc21 [Example 429, (S)-2-(2,5-difluoro-4-(6-((3-fluoropyridin-4-yl)methoxy)pyridin-2-yl)benzyl)-1-(4,4-dimethyltetrahydrofuran-3-yl)-1H-benzo[d]imidazole-6-carboxylic acid] | 0.139
10 | CC1(C)COC[C@H]1n1c(Cc2cc(F)c(-c3cccc(OCc4ccc(C5CC5)cc4)n3)cc2F)nc2ccc(C(=O)O)cc21 [Example 431, (S)-2-(4-(6-((4-cyclopropylbenzyl)oxy)pyridin-2-yl)-2,5-difluorobenzyl)-1-(4,4-dimethyltetrahydrofuran-3-yl)-1H-benzo[d]imidazole-6-carboxylic acid] | 0.377
11 | CC1(C)COC[C@H]1n1c(Cc2cc(F)c(-c3ccc(Cl)c(OCc4ccc(C#N)cc4)n3)cc2F)nc2ccc(C(=O)O)cc21 [Example 432, (S)-2-(4-(5-chloro-6-((4-cyanobenzyl)oxy)pyridin-2-yl)-2,5-difluorobenzyl)-1-(4,4-dimethyltetrahydrofuran-3-yl)-1H-benzo[d]imidazole-6-carboxylic acid] | 0.114
12 | CC1(C)COC[C@H]1n1c(Cc2cc(F)c(-c3ccc(Cl)c(OCc4ccc(Cl)cc4)n3)cc2F)nc2ccc(C(=O)O)cc21 [Example 433, (S)-2-(4-(5-chloro-6-((4-chlorobenzyl)oxy)pyridin-2-yl)-2,5-difluorobenzyl)-1-(4,4-dimethyltetrahydrofuran-3-yl)-1H-benzo[d]imidazole-6-carboxylic acid] | 0.209

Continued by falling EC50, values first:

Row | EC50 [nM] | Compound
13 | 10.8 | O=C(O)c1ccc2nc(Cc3cc(F)c(-c4cccc(OCc5ccc(Cl)cc5F)n4)cc3F)n(C34COCC(C3)C4)c2c1 [Example 406, 1-(3-oxabicyclo[3.1.1]heptan-1-yl)-2-(4-(6-((4-chloro-2-fluorobenzyl)oxy)pyridin-2-yl)-2,5-difluorobenzyl)-1H-benzo[d]imidazole-6-carboxylic acid]
14 | 3.02 | CC1(C)COC[C@H]1n1c(Cc2cc(F)c(-c3cccc(OCc4ccc(C#N)cc4)n3)cc2F)nc2cnc(C(=O)O)cc21 [Example 421, (S)-2-(4-(6-((4-cyanobenzyl)oxy)pyridin-2-yl)-2,5-difluorobenzyl)-1-(4,4-dimethyltetrahydrofuran-3-yl)-1H-imidazo[4,5-c]pyridine-6-carboxylic acid]
15 | 2.54 | CC1(C)COC[C@H]1n1c(Cc2cc(F)c(-c3cccc(OCc4ccc(Cl)cc4F)n3)cc2F)nc2cnc(C(=O)O)cc21 [Example 423, (S)-2-(4-(6-((4-chloro-2-fluorobenzyl)oxy)pyridin-2-yl)-2,5-difluorobenzyl)-1-(4,4-dimethyltetrahydrofuran-3-yl)-1H-imidazo[4,5-c]pyridine-6-carboxylic acid]
16 | 1.48 | Cn1cccc(COc2cccc(-c3cc(F)c(Cc4nc5ccc(C(=O)O)cc5n4[C@@H]4COCC4(C)C)cc3F)n2)c1=O [Example 426, (S)-2-(2,5-difluoro-4-(6-((1-methyl-2-oxo-1,2-dihydropyridin-3-yl)methoxy)pyridin-2-yl)benzyl)-1-(4,4-dimethyltetrahydrofuran-3-yl)-1H-benzo[d]imidazole-6-carboxylic acid]
17 | 0.59 | CC1(C)COC[C@H]1n1c(Cc2cc(F)c(-c3cccc(OCc4ccc(OCC(F)(F)F)nc4)n3)cc2F)nc2ccc(C(=O)O)cc21 [Example 424, (S)-2-(2,5-difluoro-4-(6-((6-(2,2,2-trifluoroethoxy)pyridin-3-yl)methoxy)pyridin-2-yl)benzyl)-1-(4,4-dimethyltetrahydrofuran-3-yl)-1H-benzo[d]imidazole-6-carboxylic acid]
18 | 0.494 | CC1(C)COC[C@H]1n1c(Cc2cc(F)c(-c3cccc(OCc4ccc(C(F)(F)F)nc4)n3)cc2F)nc2ccc(C(=O)O)cc21 [Example 425, (S)-2-(2,5-difluoro-4-(6-((6-(trifluoromethyl)pyridin-3-yl)methoxy)pyridin-2-yl)benzyl)-1-(4,4-dimethyltetrahydrofuran-3-yl)-1H-benzo[d]imidazole-6-carboxylic acid]
19 | 0.491 | CC1(C)COC[C@H]1n1c(Cc2c(F)cc(-c3ccc(Cl)c(OCc4ccc(C#N)cc4)n3)c(F)c2F)nc2ccc(C(=O)O)cc21 [Example 415, (S)-2-(4-(5-chloro-6-((4-cyanobenzyl)oxy)pyridin-2-yl)-2,3,6-trifluorobenzyl)-1-(4,4-dimethyltetrahydrofuran-3-yl)-1H-benzo[d]imidazole-6-carboxylic acid]
20 | 0.413 | CC1(C)COC[C@H]1n1c(Cc2cc(F)c(-c3cccc(OCc4ccc(C(F)F)nc4)n3)cc2F)nc2ccc(C(=O)O)cc21 [Example 420, (S)-2-(4-(6-((6-(difluoromethyl)pyridin-3-yl)methoxy)pyridin-2-yl)-2,5-difluorobenzyl)-1-(4,4-dimethyltetrahydrofuran-3-yl)-1H-benzo[d]imidazole-6-carboxylic acid]
21 | 0.281 | CC1(C)COC[C@H]1n1c(Cc2cc(F)c(-c3cccc(OCc4ccc(C(F)(F)F)cc4C#N)n3)cc2F)nc2ccc(C(=O)O)cc21 [Example 413, (S)-2-(4-(6-((2-cyano-4-(trifluoromethyl)benzyl)oxy)pyridin-2-yl)-2,5-difluorobenzyl)-1-(4,4-dimethyltetrahydrofuran-3-yl)-1H-benzo[d]imidazole-6-carboxylic acid]
22 | 0.112 | CC1(C)COC[C@H]1n1c(Cc2cc(F)c(-c3cccc(OCc4ccc(C#N)cc4F)n3)cc2F)nc2cc(F)c(C(=O)O)cc21 [Example 419, (S)-2-(4-(6-((4-cyano-2-fluorobenzyl)oxy)pyridin-2-yl)-2,5-difluorobenzyl)-1-(4,4-dimethyltetrahydrofuran-3-yl)-5-fluoro-1H-benzo[d]imidazole-6-carboxylic acid]
23 | 0.058 | CC1(C)COC[C@H]1n1c(Cc2cc(F)c(-c3ccc(Cl)c(OCc4ccc(C#N)cc4F)n3)cc2F)nc2ccc(C(=O)O)cc21 [Example 434, (S)-2-(4-(5-chloro-6-((4-cyano-2-fluorobenzyl)oxy)pyridin-2-yl)-2,5-difluorobenzyl)-1-(4,4-dimethyltetrahydrofuran-3-yl)-1H-benzo[d]imidazole-6-carboxylic acid]
24 | 0.02 | COc1cnccc1COc1cccc(-c2cc(F)c(Cc3nc4ccc(C(=O)O)cc4n3[C@@H]3COCC3(C)C)cc2F)n1 [Example 430, (S)-2-(2,5-difluoro-4-(6-((3-methoxypyridin-4-yl)methoxy)pyridin-2-yl)benzyl)-1-(4,4-dimethyltetrahydrofuran-3-yl)-1H-benzo[d]imidazole-6-carboxylic acid]
